Here are results for 45 molecules from ChEMBL document CHEMBL5233206, “An overview on the synthesis of carbohydrate-based molecules with biological activity related to neurodegenerative diseases” (RSC Med Chem, 2021).

Broadly, the Ki is the dissociation constant of the complex between target and ligand, obtained from inhibition or displacement. Read a low Ki as tighter binding. In general, IC50 refers to the concentration needed to halve the response being measured. A high value points to lower potency. The term logP denotes the decadic logarithm of the partition coefficient of the neutral form, usually between octanol and water.

The target in data set [1] is T1, Cholinesterase (Homo sapiens, UniProt P06276).
T1 sequence (P06276 whole entry): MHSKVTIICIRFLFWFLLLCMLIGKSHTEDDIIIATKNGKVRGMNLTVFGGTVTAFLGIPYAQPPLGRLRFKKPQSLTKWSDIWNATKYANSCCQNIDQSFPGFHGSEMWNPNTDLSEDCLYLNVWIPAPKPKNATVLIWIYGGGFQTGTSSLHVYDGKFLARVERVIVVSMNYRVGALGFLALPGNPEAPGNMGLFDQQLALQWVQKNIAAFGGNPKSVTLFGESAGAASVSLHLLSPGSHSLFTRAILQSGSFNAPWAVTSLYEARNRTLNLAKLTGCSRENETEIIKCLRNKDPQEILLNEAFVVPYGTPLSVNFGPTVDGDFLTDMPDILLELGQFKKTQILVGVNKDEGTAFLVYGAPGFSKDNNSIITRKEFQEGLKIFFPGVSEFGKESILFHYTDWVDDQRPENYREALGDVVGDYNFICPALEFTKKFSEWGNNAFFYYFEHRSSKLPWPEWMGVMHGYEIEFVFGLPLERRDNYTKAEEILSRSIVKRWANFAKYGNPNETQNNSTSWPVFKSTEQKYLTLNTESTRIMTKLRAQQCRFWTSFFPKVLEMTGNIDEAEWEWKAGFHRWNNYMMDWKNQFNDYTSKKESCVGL
Description: Binding affinity to BuChE (unknown origin) assessed as inhibition constant incubated for 30 mins by ellman's method
Data set [2] addresses T2, Acetylcholinesterase (Homo sapiens, UniProt P22303).
Description: Binding affinity to AChE (unknown origin) assessed as inhibition constant incubated for 30 mins by ellman's method
Data set [3] concerns the target T2, Acetylcholinesterase. Briefly: Inhibition of AChE (unknown origin).
Data set [4] has as its target Cholinesterase (Mus musculus, UniProt Q03311). Briefly: Inhibition of mouse serum BuChE. Format: cell-free.
The target of data set [5] is T3, Acetylcholinesterase (Mus musculus, UniProt P21836).
T3 sequence (P21836 whole entry): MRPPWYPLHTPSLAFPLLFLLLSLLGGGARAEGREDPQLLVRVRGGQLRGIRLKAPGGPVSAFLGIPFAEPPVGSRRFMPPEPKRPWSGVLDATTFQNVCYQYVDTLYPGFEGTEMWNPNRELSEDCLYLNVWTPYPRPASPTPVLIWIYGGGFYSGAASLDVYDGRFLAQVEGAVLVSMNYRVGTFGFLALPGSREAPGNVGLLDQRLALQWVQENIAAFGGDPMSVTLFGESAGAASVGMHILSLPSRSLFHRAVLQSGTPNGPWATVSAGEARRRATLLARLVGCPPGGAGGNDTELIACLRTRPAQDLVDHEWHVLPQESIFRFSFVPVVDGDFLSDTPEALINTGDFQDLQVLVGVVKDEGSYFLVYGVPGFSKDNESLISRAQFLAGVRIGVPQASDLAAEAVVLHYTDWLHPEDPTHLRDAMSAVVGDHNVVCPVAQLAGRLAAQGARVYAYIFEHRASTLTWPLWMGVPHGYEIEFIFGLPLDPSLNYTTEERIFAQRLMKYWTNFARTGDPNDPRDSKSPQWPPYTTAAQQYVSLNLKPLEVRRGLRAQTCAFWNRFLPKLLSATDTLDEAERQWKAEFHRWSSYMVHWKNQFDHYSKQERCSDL
As to the kind of experiment: Inhibition of mouse brain AChE. Format: tissue-based.

Data set [6] concerns the target T4, Acetylcholinesterase (Electrophorus electricus, UniProt O42275).
Description: Binding affinity to electrical eel AChE assessed as inhibition constant incubated for 20 mins by absorbance based analysis
In data set [7] the target is T1, Cholinesterase. The source holds these as a separate data set.
Description: Binding affinity to BuChE (unknown origin) assessed as inhibition constant
Data set [8] has as its target T4, Acetylcholinesterase. As to the kind of experiment: Inhibition of electrical eel AChE by ellman's method.
Data set [9] has as its target T5, Cholinesterase (Equus caballus, UniProt P81908).
Description: Inhibition of equine serum BuChE by ellman's method
Data set [10] in a line: Lipophilicity, logP of the compound. Format: physicochemical. Particulars: octanol/water.
In data set [11] the target is T5, Cholinesterase. Briefly: Binding affinity to horse serum BuChE using ATCh-iodide as substrate by ellman's method. In general terms: In Ellman's method for cholinesterases, released thiocholine reacts with DTNB.

T4 sequence (O42275 whole entry): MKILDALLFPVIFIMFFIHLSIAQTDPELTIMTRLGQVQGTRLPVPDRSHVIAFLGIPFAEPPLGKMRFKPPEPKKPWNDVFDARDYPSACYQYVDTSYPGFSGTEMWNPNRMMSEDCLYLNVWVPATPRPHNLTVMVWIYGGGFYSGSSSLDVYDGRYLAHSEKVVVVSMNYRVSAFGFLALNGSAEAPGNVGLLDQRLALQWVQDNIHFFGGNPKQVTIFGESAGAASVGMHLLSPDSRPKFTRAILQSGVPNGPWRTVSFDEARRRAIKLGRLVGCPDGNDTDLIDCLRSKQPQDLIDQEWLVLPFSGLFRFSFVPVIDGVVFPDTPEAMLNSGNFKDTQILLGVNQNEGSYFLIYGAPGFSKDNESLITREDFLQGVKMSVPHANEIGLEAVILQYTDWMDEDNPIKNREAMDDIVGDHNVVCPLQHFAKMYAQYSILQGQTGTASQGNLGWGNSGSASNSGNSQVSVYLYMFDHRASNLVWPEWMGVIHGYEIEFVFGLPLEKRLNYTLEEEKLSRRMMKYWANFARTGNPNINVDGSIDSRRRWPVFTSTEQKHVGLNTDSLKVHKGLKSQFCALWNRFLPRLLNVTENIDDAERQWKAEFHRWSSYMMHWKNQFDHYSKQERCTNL
T2 sequence (P22303 whole entry): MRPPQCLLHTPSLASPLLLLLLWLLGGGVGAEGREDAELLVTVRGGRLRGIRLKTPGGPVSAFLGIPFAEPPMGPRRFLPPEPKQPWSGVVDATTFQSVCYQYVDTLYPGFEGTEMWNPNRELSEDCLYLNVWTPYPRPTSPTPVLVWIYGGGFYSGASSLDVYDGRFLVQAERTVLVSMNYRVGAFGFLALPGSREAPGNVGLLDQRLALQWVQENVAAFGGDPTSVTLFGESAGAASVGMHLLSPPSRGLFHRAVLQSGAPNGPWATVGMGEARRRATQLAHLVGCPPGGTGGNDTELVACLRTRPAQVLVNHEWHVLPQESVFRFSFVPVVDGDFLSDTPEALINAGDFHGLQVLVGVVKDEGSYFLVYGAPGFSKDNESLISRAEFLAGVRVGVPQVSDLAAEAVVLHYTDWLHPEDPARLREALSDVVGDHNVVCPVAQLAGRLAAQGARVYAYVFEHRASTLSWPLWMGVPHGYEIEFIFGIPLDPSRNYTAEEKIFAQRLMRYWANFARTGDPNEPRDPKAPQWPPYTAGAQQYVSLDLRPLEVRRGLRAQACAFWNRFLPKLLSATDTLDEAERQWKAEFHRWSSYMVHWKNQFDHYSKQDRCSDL
Cholinesterase (Mus musculus, UniProt Q03311), sequence (Q03311 whole entry): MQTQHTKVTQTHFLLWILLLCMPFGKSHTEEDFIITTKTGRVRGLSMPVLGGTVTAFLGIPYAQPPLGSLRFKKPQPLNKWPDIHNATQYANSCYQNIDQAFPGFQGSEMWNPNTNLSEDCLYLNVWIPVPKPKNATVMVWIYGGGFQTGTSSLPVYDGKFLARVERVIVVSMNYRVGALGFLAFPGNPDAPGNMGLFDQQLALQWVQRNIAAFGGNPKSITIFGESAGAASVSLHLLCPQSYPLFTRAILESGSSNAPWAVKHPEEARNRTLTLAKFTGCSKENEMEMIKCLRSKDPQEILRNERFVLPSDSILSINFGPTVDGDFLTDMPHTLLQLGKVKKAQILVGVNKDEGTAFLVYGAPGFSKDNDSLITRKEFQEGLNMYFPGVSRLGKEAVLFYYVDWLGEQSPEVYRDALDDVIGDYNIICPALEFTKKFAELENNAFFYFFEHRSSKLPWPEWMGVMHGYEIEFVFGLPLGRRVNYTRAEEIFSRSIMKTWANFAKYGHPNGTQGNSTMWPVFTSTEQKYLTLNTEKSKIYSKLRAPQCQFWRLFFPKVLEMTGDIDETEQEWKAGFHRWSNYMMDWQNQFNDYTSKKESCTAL
T5 sequence (P81908 whole entry): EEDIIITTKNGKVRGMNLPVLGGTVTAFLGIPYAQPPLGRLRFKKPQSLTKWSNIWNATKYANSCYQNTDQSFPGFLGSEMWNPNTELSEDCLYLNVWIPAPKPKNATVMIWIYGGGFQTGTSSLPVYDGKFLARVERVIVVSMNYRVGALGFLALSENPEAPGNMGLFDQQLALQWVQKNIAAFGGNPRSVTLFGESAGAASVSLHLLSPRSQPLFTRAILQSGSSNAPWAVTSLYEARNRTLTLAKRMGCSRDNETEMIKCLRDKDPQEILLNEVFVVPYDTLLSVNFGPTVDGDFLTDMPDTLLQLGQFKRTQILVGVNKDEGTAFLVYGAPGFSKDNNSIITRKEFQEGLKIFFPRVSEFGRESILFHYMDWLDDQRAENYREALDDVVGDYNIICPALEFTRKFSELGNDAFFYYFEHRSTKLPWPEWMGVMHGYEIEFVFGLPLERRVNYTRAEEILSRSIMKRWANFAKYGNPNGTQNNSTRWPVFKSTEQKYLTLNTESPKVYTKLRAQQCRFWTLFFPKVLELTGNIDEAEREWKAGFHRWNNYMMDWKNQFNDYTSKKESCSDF

For `CC(=O)Nc1nc(Cl)c2ncn(C3O[C@H](C(=O)NCc4ccccc4)[C@@H](OC(C)=O)[C@@H](OC(C)=O)[C@H]3OC(C)=O)c2n1` (some centres undefined), the Ki was more than 100 µM in data set [1] and 31 µM in data set [2].
In turn, `CC1=C(CO[C@@H]2O[C@H](CO[C@@H]3O[C@H](CO)[C@@H](O)[C@H](O)[C@H]3O)[C@@H](O)[C@H](O)[C@H]2O)C(C)(C)CCC1` yielded an IC50 in data set [3] of 3.2 µM.
Turning to `CC1(C)O[C@H]2[C@@H](O1)[C@@H](CNCCCCCCCCCCNc1c3c(nc4ccccc14)CCCC3)O[C@@H]1OC(C)(C)O[C@@H]12`, the IC50 in [4] came out at 0.026 µM; in data set [5] it was 0.0076 µM.
With `CC(=O)Nc1nc(Cl)c2c(ncn2[C@H]2O[C@H](COCc3ccccc3)[C@@H](OCc3ccccc3)[C@H](OCc3ccccc3)[C@@H]2OCc2ccccc2)n1`, in data set [1], the inhibition constant Ki worked out at 0.05 µM.
In data set [6], `CCCCCCCCCCCCNC(=O)[C@@H](OCc1ccccc1)[C@H]1O[C@H](n2cc(-c3ccccc3)nn2)[C@H](OC(C)=O)[C@H]1OCc1ccccc1` returned a Ki of 9.69 µM.
On to `CC(=O)Nc1nc(Cl)c2ncn(C3O[C@H]4[C@H](OC(=O)[C@@H]4O)[C@H]3OC(C)=O)c2n1` (some centres undefined), for which the Ki in data set [1] is more than 100 µM; in [2], 23.7 µM.
Consider `CCCCCCCCCCCCNC(=O)[C@@H](OCc1ccccc1)[C@H]1O[C@H](N=[N+]=[N-])[C@H](OC(C)=O)[C@H]1OCc1ccccc1`, for which the Ki in [6] is more than 100 µM.
For the molecule `CO[C@H]1O[C@H](Cn2c(=O)c3c(ncn3C)n(C)c2=O)[C@@H](OC(C)=O)[C@H](OC(C)=O)[C@H]1OC(C)=O`, the Ki in data set [7] came out at 4 µM; in data set [6], 4.3 µM.
Regarding `CC(=O)Nc1nc(Cl)c2ncn(C3O[C@H](CC(=O)NCc4ccccc4)[C@H](OC(C)=O)[C@H]3OC(C)=O)c2n1` (some centres undefined), the values for the Ki in data set [1] and in data set [2] were more than 100 µM and 14.8 µM, respectively.
Take `O=c1c2ccccc2n(CCCCCCn2cc(CO[C@@H]3O[C@H](CO)[C@H](O)[C@H](O)[C@H]3O)nn2)c2ccccc12`: the IC50 is 44.7 µM in data set [8] and 38.3 µM in data set [9].
For the molecule `COc1ccc2c(c1)c(=O)c1ccccc1n2CCCCCCn1cc(CO[C@@H]2O[C@H](CO)[C@@H](O)[C@H](O)[C@H]2O)nn1`, the concentration for half-maximal inhibition (IC50) was 56.1 µM in data set [8] and 82.3 µM in data set [9]. In [10], this molecule showed a logP of 2.14.
`CCCCCCCCCCCCNC(=O)[C@@H](OCc1ccccc1)[C@H]1OC(OC(C)=O)[C@H](OC(C)=O)[C@H]1OC(C)=O` (some centres undefined) registered a Ki in data set [6] of more than 100 µM.
The same measure, in the same setting: next, `CCCCCCCCCCCCNC(=O)[C@@H](OCc1ccccc1)[C@H]1OC(N=[N+]=[N-])[C@H](OC(C)=O)[C@H]1OC(C)=O` (some centres undefined): more than 100 µM.
Molecule `CC(=O)O[C@H]1C(NS(C)(=O)=O)O[C@H](Cn2c(=O)c3c(ncn3C)n(C)c2=O)[C@@H]1OCc1ccccc1` (some centres undefined) had a Ki in data set [6] of 6.61 µM.
Turning to `CCCCCCCCCCCCNC(=O)[C@@H](OCc1ccccc1)[C@H]1O[C@@H](N=[N+]=[N-])[C@H](OC(C)=O)[C@H]1OCc1ccccc1`, in data set [6], the Ki was 1.73 µM.
As for `COc1cc([C@@H](O)[C@H](CO[C@@H]2O[C@H](CO)[C@@H](O)[C@H](O)[C@H]2O)Oc2ccc(CCCO)cc2OC)ccc1O`, in data set [3], the IC50 is 0.75 µM.
In data set [6], `CCCCCCCCCCCCNC(=O)[C@@H](OCc1ccccc1)[C@H]1O[C@@H](n2cc(-c3ccccc3)nn2)[C@H](OC(C)=O)[C@H]1OCc1ccccc1` yielded a Ki of 3.53 µM.
Regarding `COC1O[C@H](Cn2ccc(=O)[nH]c2=O)[C@@H](OCc2ccccc2)[C@H](OCc2ccccc2)[C@H]1OCc1ccccc1` (some centres undefined), in data set [7], the Ki was less than 100 µM.
In the case of `COC1O[C@H](Cn2ccc(=O)n(C[C@H]3O[C@H](OC)[C@H](OCc4ccccc4)[C@@H](OCc4ccccc4)[C@@H]3OCc3ccccc3)c2=O)[C@@H](OCc2ccccc2)[C@H](OCc2ccccc2)[C@H]1OCc1ccccc1` (some centres undefined), the figures for the Ki in data set [7] and in data set [6] were 4 µM and 4.2 µM, respectively.
For `CC1(C)O[C@H]2O[C@H](CNCCCCCCCCNc3c4c(nc5ccccc35)CCCC4)[C@H](O)[C@H]2O1`, the results for the IC50 in data set [4] and in data set [5] were 0.011 µM and 0.084 µM, respectively.
Regarding `CC(=O)Nc1nc(Cl)c2c(ncn2C2O[C@H](C(=O)NCc3ccccc3)[C@@H](OC(C)=O)[C@@H](OC(C)=O)[C@H]2OC(C)=O)n1` (some centres undefined), the figures for the Ki in data set [1] and in [2] were more than 100 µM and 18.7 µM, respectively.
Take `CO[C@H]1O[C@H](Cn2cnc3c(Cl)nc(NC(C)=O)nc32)[C@@H](OCc2ccccc2)[C@H](OCc2ccccc2)[C@H]1OCc1ccccc1`: the Ki in [7] is less than 100 µM; in data set [6] it was 7.1 µM.
For `COc1ccc2c(c1)c(=O)c1ccccc1n2CCCCCCn1cc(CO[C@@H]2O[C@H](CO)[C@@H](O)[C@H]2O)nn1`, the half-maximal inhibitory concentration (IC50) came to 81.8 µM in data set [8] and 35.1 µM in data set [9].
For the molecule `COc1cc(CO)ccc1O[C@@H]1O[C@H](CO)[C@@H](O)[C@H](O)[C@H]1O` [VANILLOLOSIDE], the IC50 in [3] came out at 4.55 µM.
For the molecule `COc1ccc2c(c1)c(=O)c1ccccc1n2CCCCCCn1cc(CO[C@@H]2O[C@H](CO)[C@H](O)[C@H](O)[C@H]2O)nn1`, the IC50 is 44.7 µM in data set [8] and 65.6 µM in data set [9].
In the case of `CC1(C)O[C@H]2O[C@H](NCCCCCCCNc3c4c(nc5ccccc35)CCCC4)[C@H](O)[C@H]2O1`, the IC50 in data set [4] stood at 0.027 µM; in data set [5] it was 0.0087 µM.
As to `CC1(C)O[C@H]2[C@@H](O1)[C@@H](CNCCCCCCCCCNc1c3c(nc4ccccc14)CCCC3)O[C@@H]1OC(C)(C)O[C@@H]12`, the results for the half-inhibitory concentration (IC50) in [4] and in data set [5] were 0.037 µM and 0.0048 µM, respectively.
Turning to `CC(=O)Nc1nc(NCc2ccccc2)c2ncn(C3O[C@H](CC(=O)NCc4ccccc4)[C@H](OC(C)=O)[C@H]3OC(C)=O)c2n1` (some centres undefined), the Ki in [1] was more than 100 µM; in data set [2], 50.5 µM.
For the molecule `O=c1c2ccccc2n(CCCCCCn2cc(CO[C@@H]3O[C@H](CO)[C@@H](O)[C@H](O)[C@H]3O)nn2)c2ccccc12`, the values for the half-maximal inhibitory concentration (IC50) in data set [8] and in data set [9] were 38.2 µM and 29.3 µM, respectively. In [10], this molecule returned a logP of 2.14.
For `OC[C@H]1O[C@@H](OCCN2CN(Cc3ccccc3)c3ccccc32)[C@H](O)[C@@H](O)[C@H]1O`, affinity in [11] was put at a Ki of 26 µM.
With `CCCCCCCCCCCCNC(=O)[C@@H](OCc1ccccc1)[C@H]1OC(n2cc(-c3ccccc3)nn2)[C@H](OC(C)=O)[C@H]1OC(C)=O` (some centres undefined), in data set [6], the Ki stood at 9.5 µM.
As to `COc1ccc2c(c1)c(=O)c1ccccc1n2CCCCCCn1cc(CO[C@H]2C[C@H](O)[C@@H](CO)O2)nn1`, the IC50 in [8] was 85.1 µM; in [9], 35.4 µM.
In data set [6], `Cn1cnc2c1c(=O)n(C[C@H]1O[C@@H]3OC(C)(C)O[C@@H]3[C@H]1OCc1ccccc1)c(=O)n2C` showed a Ki of more than 100 µM.
In the case of `CC1(C)O[C@H]2O[C@H](CNCCCCCCCCCNc3c4c(nc5ccccc35)CCCC4)[C@H](O)[C@H]2O1`, the concentration for half-maximal inhibition (IC50) in [4] worked out at 0.025 µM; in data set [5], 0.0051 µM.
Regarding `OC[C@H]1O[C@@H](OCCn2cnc3ccccc32)[C@H](O)[C@@H](O)[C@H]1O`, in [11], the Ki turned out to be 782 µM.
`CC1(C)O[C@H]2O[C@H](CNCCCCCCCCCCCNc3c4c(nc5ccccc35)CCCC4)[C@H](O)[C@H]2O1`: the IC50 worked out at 0.0049 µM in data set [4] and 0.0022 µM in data set [5].
The molecule `OC[C@H]1O[C@@H](OCCN2CN(Cc3ccccc3)c3ccccc32)[C@H](O)[C@@H](O)[C@@H]1O` came in with an inhibition constant (Ki) in data set [11] of 52 µM.
Consider `O=c1c2ccccc2n(CCCCCCn2cc(CO[C@H]3C[C@H](O)[C@@H](CO)O3)nn2)c2ccccc12`, for which the IC50 in data set [8] worked out at 167 µM; in [9], 42.8 µM.
As to `CC(=O)Nc1nc(Cl)c2c(ncn2C2O[C@H](C(=O)O)[C@@H](OC(C)=O)[C@@H](OC(C)=O)[C@H]2OC(C)=O)n1` (some centres undefined), the Ki in data set [1] is more than 100 µM; in data set [2], 37.9 µM.
With `CO[C@@H]1O[C@H](CNCCCCCCCCCCNc2c3c(nc4ccccc24)CCCC3)[C@H]2OC(C)(C)O[C@@H]12`, the 50% inhibitory concentration (IC50) in [4] came to 0.064 µM; in data set [5], 0.065 µM.
As to `COC1O[C@H](Cn2ccc(=O)n(C[C@H]3O[C@H](OC)[C@H](O)[C@@H](O)[C@@H]3O)c2=O)[C@@H](O)[C@H](O)[C@H]1O` (some centres undefined), the figures for the inhibitory constant (Ki) in data set [7] and in data set [6] were less than 100 µM and 22.9 µM, respectively.
In the case of `CC1(C)O[C@H]2O[C@H](CNCCCCCCCCCCNc3c4c(nc5ccccc35)CCCC4)[C@H](O)[C@H]2O1`, the IC50 in [4] is 0.031 µM; in data set [5], 0.01 µM.
Take `CO[C@@H]1O[C@H](CNCCCCCCCCCNc2c3c(nc4ccccc24)CCCC3)[C@H]2OC(C)(C)O[C@@H]12`: the IC50 was 0.037 µM in [4] and 0.09 µM in data set [5].
On to `CCCCCCCCCCCCNC(=O)[C@@H](OCc1ccccc1)[C@H]1OC(OC(C)=O)[C@H](OC(C)=O)[C@H]1OCc1ccccc1` (some centres undefined), for which the Ki in [6] is more than 100 µM.
Regarding `CC(=O)Nc1nc(Cl)c2ncn(C3O[C@H](C(=O)O)[C@@H](OC(C)=O)[C@@H](OC(C)=O)[C@H]3OC(C)=O)c2n1` (some centres undefined), the Ki is more than 100 µM in data set [1] and 26.9 µM in [2].
